In one experiment the target is T1, PKMYT1 (Homo sapiens, UniProt Q99640).
T1 sequence (Q99640 1-499): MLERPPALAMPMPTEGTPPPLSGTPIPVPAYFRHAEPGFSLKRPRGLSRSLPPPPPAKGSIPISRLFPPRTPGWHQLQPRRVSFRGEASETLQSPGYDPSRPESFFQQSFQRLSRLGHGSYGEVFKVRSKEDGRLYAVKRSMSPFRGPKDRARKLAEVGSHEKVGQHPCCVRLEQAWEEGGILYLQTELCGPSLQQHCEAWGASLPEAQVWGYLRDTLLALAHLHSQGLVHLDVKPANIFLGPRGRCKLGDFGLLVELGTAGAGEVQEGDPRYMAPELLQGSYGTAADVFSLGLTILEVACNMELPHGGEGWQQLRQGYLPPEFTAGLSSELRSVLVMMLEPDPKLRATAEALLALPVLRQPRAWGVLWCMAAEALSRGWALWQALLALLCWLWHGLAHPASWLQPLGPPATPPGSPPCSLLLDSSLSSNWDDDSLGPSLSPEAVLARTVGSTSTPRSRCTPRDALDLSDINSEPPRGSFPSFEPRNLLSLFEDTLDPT
Briefly: LanthaScreen Eu Kinase Binding Assay, PKMYT1. Background: In TR-FRET formats the signal depends on donor and acceptor labels being close together.

In another experiment the target is WEE1 (Homo sapiens, UniProt P30291). Briefly: LanthaScreen Eu Kinase Binding Assay, WEE1.

Molecules are shown by their SMILES. pIC50: −log10 of the molar value.

What is called pIC50 is −log10 of the IC50, conventionally taken in molar units. The low end stands for a high IC50, the high end for a low IC50.

WEE1, sequence (P30291 whole entry): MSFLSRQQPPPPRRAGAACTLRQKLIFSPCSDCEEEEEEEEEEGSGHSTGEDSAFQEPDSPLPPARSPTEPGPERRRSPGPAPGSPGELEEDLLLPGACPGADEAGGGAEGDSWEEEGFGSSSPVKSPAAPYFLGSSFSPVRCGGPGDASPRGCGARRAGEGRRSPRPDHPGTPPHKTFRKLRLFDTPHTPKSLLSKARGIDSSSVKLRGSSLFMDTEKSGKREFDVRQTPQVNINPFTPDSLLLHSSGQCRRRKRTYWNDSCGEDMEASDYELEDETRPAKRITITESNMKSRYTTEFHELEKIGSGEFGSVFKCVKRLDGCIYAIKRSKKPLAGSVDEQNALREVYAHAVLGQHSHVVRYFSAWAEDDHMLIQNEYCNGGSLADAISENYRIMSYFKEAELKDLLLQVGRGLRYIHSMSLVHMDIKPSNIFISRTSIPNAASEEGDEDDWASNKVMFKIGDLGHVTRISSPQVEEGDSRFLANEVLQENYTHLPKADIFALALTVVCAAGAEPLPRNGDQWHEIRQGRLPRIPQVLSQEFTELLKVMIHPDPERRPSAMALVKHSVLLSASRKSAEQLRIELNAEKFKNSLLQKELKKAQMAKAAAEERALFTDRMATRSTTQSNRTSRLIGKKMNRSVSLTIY
Experimental for PKMYT1: (§1) Binding of the tracer to the kinase is detected using a europium-labeled anti-GST antibody, which binds to the fused tag on the kinase protein. […] Inhibitor binding to the kinase competes with tracer binding, resulting in loss of FRET from the donor/acceptor pairs.
(§2) Kinase/Antibody Mixtures and Tracer are diluted to a 2× and 4× working concentration, respectively in this same buffer. […] 0% displacement (no known inhibitor) and 100% displacement (highest concentration of known inhibitor) controls were included on each plate for maximum and minimum Emission Ratio determination, respectively. Dasatinib was used for both PKMYT1 and WEE1 as the known inhibitor.
(§3) IC50 determination was performed using a non-linear regression, variable slope (four parameter), inhibitor v. response equation (Prism 9.0).
Experimental for WEE1: as §1, §2, §3

For `CCN(c1cc2c(N)ncnc2c(-c2c(C)ccc(O)c2C)n1)C1CC1` (single isomer, unassigned) [Compound 36-B], the values for the pIC50 on PKMYT1 and on WEE1 were > 8.00 and 6.00 to 7.00, respectively.
For `Cc1ccc(O)c(C)c1-c1nc(N2CCC(O)CC2)cc2c(N)ncnc12` (single isomer, unassigned) [Compound 11-B] the same measures were > 8.00 and < 6.00.
On to `Cc1ccc(O)c(C)c1-c1cc(N(C)C2CC2)nc2c(N)ncnc12` [Compound 75-B, (R)-3-(4-amino-6-(cyclopropyl(methyl)amino)pyrido[3,2-d]pyrimidin-8-yl)-2,4-dimethylphenol], for which the pIC50 on PKMYT1 was 7.00 to 8.00; on WEE1, < 6.00.
For `CNc1cc2c(N)ncnc2c(-c2c(C)ccc(O)c2C)n1` (single isomer, unassigned) [Compound 1-B] the same measures were 7.00 to 8.00 and < 6.00.
As for `Cc1ccc(O)c(C)c1-c1nc(NS(C)(=O)=O)cc2c(N)ncnc12` (single isomer, unassigned) [Compound 16-B], the negative-log IC50 (pIC50) was 7.00 to 8.00 on PKMYT1 and < 6.00 on WEE1.
For `COC[C@H]1CCN(c2cc3c(N)ncnc3c(-c3c(C)ccc(O)c3C)n2)C1` (single isomer, unassigned) [Compound 23-B] the same measures were > 8.00 and < 6.00.
Take `Cc1ccc(O)c(C)c1-c1nc(N(C)C2CCC2)cc2c(N)ncnc12` (single isomer, unassigned) [Compound 37-B]: the figures for the pIC50 at PKMYT1 and on WEE1 were > 8.00 and 6.00 to 7.00, respectively.
Take `Cc1ccc(O)c(C)c1-c1nc(N2CCC(F)(F)C2)cc2c(N)ncnc12` (single isomer, unassigned) [Compound 2-B]: the pIC50 is > 8.00 on PKMYT1 and 6.00 to 7.00 on WEE1.
The like results for `Cc1ccc(O)c(C)c1-c1nc(N2CC[C@](C)(F)C2)cc2c(N)ncnc12` (single isomer, unassigned) [Compound 55-B] were, in that order, > 8.00 and 6.00 to 7.00.
Turning to `Cc1ccc(O)c(C)c1-c1nc(N(C)C2CC2)cc2c(N)ncnc12` (single isomer, unassigned) [Compound 21-B], the pIC50 was > 8.00 on PKMYT1 and 6.00 to 7.00 on WEE1.
For `Cc1ccc(O)c(C)c1-c1nc(N(C)[C@H]2[C@@H]3COC[C@@H]32)cc2c(N)ncnc12` [Compound 61-B, 3-((S)-6-(((1R,5S,6r)-3-oxabicyclo[3.1.0]hexan-6-yl)(methyl)amino)-4-aminopyrido[3,4-d]pyrimidin-8-yl)-2,4-dimethylphenol] the same measures were > 8.00 and < 6.00.
For `Cc1ccc(O)c(C)c1-c1cc(C2CC2)nc2c(N)ncnc12` [Compound 76-B, (R)-3-(4-amino-6-cyclopropylpyrido[3,2-d]pyrimidin-8-yl)-2,4-dimethylphenol] the same measures were > 8.00 and < 6.00.
The like results for `Cc1ccc(O)c(C)c1-c1nc(N(C)CCO)cc2c(N)ncnc12` (racemic) [Compound 47-A, 3-(4-amino-6-((2-hydroxyethyl)(methyl)amino)pyrido[3,4-d]pyrimidin-8-yl)-2,4-dimethylphenol] were, in that order, 7.00 to 8.00 and < 6.00.
Turning to `Cc1ccc(O)c(C)c1-c1nc(N[C@H]2C[C@H](O)C2)cc2c(N)ncnc12` (single isomer, unassigned) [Compound 15-B], the pIC50 is 7.00 to 8.00 on PKMYT1 and < 6.00 on WEE1.
For `Cc1ccc(O)c(C)c1-c1cc(C2=CCOCC2)nc2c(N)ncnc12` [Compound 71-B, (R)-3-(4-amino-6-(3,6-dihydro-2H-pyran-4-yl)pyrido[3,2-d]pyrimidin-8-yl)-2,4-dimethylphenol] the same measures were > 8.00 and 6.00 to 7.00.
For `Cc1ccc(O)c(C)c1-c1nc(N2CC(C)(CO)C2)cc2c(N)ncnc12` (single isomer, unassigned) [Compound 22-B] the same measures were 7.00 to 8.00 and < 6.00.
The like results for `Cc1ccc(O)c(C)c1-c1nc(N2CC(F)(F)C2)cc2c(N)ncnc12` (single isomer, unassigned) [Compound 5-B] were, in that order, 7.00 to 8.00 and < 6.00.
As to `Cc1cc2c(N)ncnc2c(-c2c(C)ccc(O)c2C)n1` [Compound 17-B, (S)-3-(4-Amino-6-methylpyrido[3,4-d]pyrimidin-8-yl)-2,4-dimethylphenol], the pIC50 on PKMYT1 is 7.00 to 8.00; on WEE1, < 6.00.
The like results for `Cc1ccc(O)c(C)c1-c1nc(N(C)C2(C(F)(F)F)CC2)cc2c(N)ncnc12` (single isomer, unassigned) [Compound 42-B] were, in that order, > 8.00 and 6.00 to 7.00.
Regarding `Cc1ccc(O)c(C)c1-c1nc(C(C)C)cc2c(N)ncnc12` (single isomer, unassigned) [Compound 50-B], the pIC50 is 7.00 to 8.00 on PKMYT1 and < 6.00 on WEE1.
For `Cc1ccc(O)c(C)c1-c1nc(N2CC[C@H](F)C2)cc2c(N)ncnc12` (single isomer, unassigned) [Compound 59-B], the pIC50 on PKMYT1 was > 8.00; at WEE1, 6.00 to 7.00.
For `Cc1ccc(O)c(C)c1-c1nc(-c2ccc(F)cc2F)cc2c(N)ncnc12` (single isomer, unassigned) [Compound 31-B] the same measures were > 8.00 and 6.00 to 7.00.
The like results for `Cc1ccc(O)c(C)c1-c1nc(N(C)CC(F)F)cc2c(N)ncnc12` (single isomer, unassigned) [Compound 28-B] were, in that order, > 8.00 and < 6.00.
In the case of `Cc1cc2c(N)ncnc2c(-c2c(C)ccc(O)c2C)c1C` (single isomer, unassigned) [Compound 52-B], the pIC50 at PKMYT1 is 7.00 to 8.00; at WEE1, < 6.00.
The like results for `Cc1ccc(O)c(C)c1-c1nc(C2CC2)cc2c(N)ncnc12` (single isomer, unassigned) [Compound 18-B] were, in that order, > 8.00 and < 6.00.
The like results for `Cc1ccc(O)c(C)c1-c1nc(N=S(C)(C)=O)cc2c(N)ncnc12` (single isomer, unassigned) [Compound 8-B] were, in that order, 7.00 to 8.00 and < 6.00.
Consider `Cc1ccc(O)c(C)c1-c1nc(N(C)c2cnn(C)c2)cc2c(N)ncnc12` (single isomer, unassigned) [Compound 46-B], for which the figures for the pIC50 on PKMYT1 and on WEE1 were > 8.00 and < 6.00, respectively.
The like results for `Cc1ccc(O)c(C)c1-c1nc(N2CC[C@@H](O)C2)cc2c(N)ncnc12` (single isomer, unassigned) [Compound 3-B] were, in that order, > 8.00 and < 6.00.
The like results for `Cc1ccc(O)c(C)c1-c1nc(N(C)CC(F)(F)F)cc2c(N)ncnc12` (single isomer, unassigned) [Compound 29-B] were, in that order, > 8.00 and < 6.00.

Values taken from patent publication US20260285859A1, “BI-CYCLIC PYRIMIDINE COMPOUNDS, METHODS AND USES THEREOF” (Zeno Management, Inc., priority 2023, published 2026).
